What all share (format): functional, cell-based
In one test the test system is T47D. The test can be described thus: Cytotoxicity against human T47D cells.
For the next test, the system named is DU-145. The test can be described thus: Cytotoxicity against human DU145 cells.
Test [1] can be described thus: Cytotoxicity against human MM418c5 cells.

≈ marks a conversion by molar mass, not a printed value. Non-standard residues stand in square brackets, D forms with d. Residues, ends and D or L forms follow the SMILES beside them. NMeY = CN[C@@H](Cc1ccc(O)cc1)C(=O)O

`CC[C@H](C)[C@@H]1NC(=O)[C@H](C(C)C)NC(=O)[C@@H]2CCCN2C(=O)[C@H](Cc2ccc(O)cc2)NC(=O)[C@H](Cc2ccc(O)cc2)N(C)C1=O` [COTTESLOSIN A] (cyclo(I[NMeY]YPV)): the half-maximal effective concentration (EC50) – broadly, the midpoint of the concentration-response curve – amounted to 94 µg/mL (≈ 145 µM) in the test on T47D, 90 µg/mL (≈ 139 µM) with DU-145 and 66 µg/mL (≈ 102 µM) in test [1].

The values above are taken from ChEMBL document CHEMBL1151830, “Cottoquinazoline A and cotteslosins A and B, metabolites from an Australian marine-derived strain of Aspergillus versicolor” (J Nat Prod, 2009).
